From patent US8252831B2, “Imidazole-2-benzamide compounds useful for the treatment of osteoarthritis” (Eli Lilly and Company, priority 2010, dated 2012) come the findings set out here.

In assay [1] the test system is Human epithelial lung carcinoma cell line A549. Kind of assay: Cell Based Assay for Measuring Eicosanoid Selectivity (rhIL-1β induced PGE2 in A549 cells). To be noted: rhIL-1β 0.1-0.2 ng/mL, approximately 18 hours, PGE2 by EIA, read-out: PGE2 Inhibition. IC50 (μM, mean ± std. dev.). The procedure:
Human epithelial lung carcinoma cell line A549 is obtained from ATCC (CCL-185) and is maintained in Kaighn's F12 (“F12K”)+10% fetal bovine serum, (FBS) (plating medium), and 5% CO2. The cells are passaged at 1:3 twice per week.
For assay, cells are released from flasks by washing once with phosphate buffered saline (PBS), then once with Trypsin/EDTA. After 3-5 minutes at 37° C., the cells are suspended in 10 mL of plating medium and centrifuged at 2000 rpm, 25° C., for 5 minutes. The supernatant is aspirated and the cell pellet is resuspended in 10 mL F12K. Cell number is determined by counting an aliquot of cells which has been diluted in PBS and Trypan blue on a hemocytometer. Cells are plated at 40,000/well in 96 well Falcon plates 24 hours prior to treatment. Compounds are diluted in DMSO to 100× of the final concentration in Screen Mates tubes. The medium is removed from the cells and fresh medium (90 μL/well) is added to the cells. […] The plates are incubated at room temperature for 30-45 minutes and then read on a plate reader at A490 to determine viability. […]
The conditioned medium is assayed for levels of PGE2 and PGI2 by specific enzyme immune-assays (EIAs), according to the manufacturer's protocols (Cayman). […] After approximately 45 minutes at room temperature on an orbital shaker at 100 rpm, the plates are read at A412 on a plate reader. […]

In assay [2] the test system is Human whole blood. Description: Human Whole Blood Assay (LPS induced PGE2 production). It is filed as cell-based. The following applies: LPS 100 μg/mL, 20-24 hours, PGE2 by LC/MS/MS, read-out: PGE2 Inhibition. IC50 (μM, mean ± std. dev.). The procedure: Blood is collected from normal volunteer donors into sodium heparin vacutainer tubes. Donors are selected, in part, on their confirmation that they have not taken NSAIDs, aspirin, Celebrex, or glucocorticoids within two weeks of the donation. All tubes/donor are pooled into 250 mL Corning conical centrifuge tubes and 436.5 μL/well is distributed into deep well polypropylene plates. Compounds are diluted in DMSO to 100× final and 4.5 μL/well in duplicate or triplicate is added to give 7 point curves. […] One hundred microliters is quantitatively transferred to Costar cluster tubes blocks and 400 μL/well of the methanol stop reagent and internal standards, d-4PGE2, d-4PGF2α, and d-4TX2β are added. […]
Solid phase extraction is performed using Waters HLB 30 mg/bed 96 well plates on a vacuum manifold: 1) the matrix is washed with methanol (1 mL), followed by 0.1% formic acid in water (1 mL); 2) 400 μL sample is applied along with 0.1% formic acid in water (900 μL) and allowed to bind for 5 minutes; 3) the matrix is washed with 0.1% formic acid in water (600 μL), followed by 80/20 water/methanol (600 μL); 4) the products are eluted with 2-500 μL volumes of ethyl acetate; 5) the samples are dried under nitrogen and reconstituted in 75/25 water/acetonitrile with 0.1% formic acid (50 μL). The products were analyzed by LC/MS/MS. […]

As for `CC(C)(C)C(=O)NCc1ccc(Br)c(C(=O)Nc2ncc[nH]2)c1` [Example 5, 2-Bromo-5-[(2,2-dimethylpropanoylamino)methyl]-N-(1H-imidazol-2-yl)benzamide], the results for the IC50 in assay [1] and in assay [2] were 0.19 µM and 0.607 ± 0.502 µM, respectively.
